# Reference: US6001810A, “Methods for treating retroviral infection” (Eli Lilly and Company, priority 1990, dated 1999)
# Several values for one entry are separate records, joined by “and”; a condition that tells them apart may be missing. Equal values may be shown once.
# Assays:
# [1] = test system: HTLV-IIIB strain of HIV-1; experiment: Inhibition of HIV-1 cytopathic effect in CEM cells (XTT); format: cell-based; settings: for IC25 (concentration that reduced CPE by 25%): Table V first column
# Method: (§1) Quantitative evaluation of the viral inhibition were performed on the T-cell lymphoblastoid cell lines MT-2 (Harada et al., 1985, Science 229:563-566) and CEM (Nara and Fischinger, 1988, Nature 332:469-470). The cells were infected with the HTLV-IIIB strain of HIV-1 from the supernatant fluid of infected human T-lymphocyte cell line H9 (Popovic, M. et al., 1984, Science 224:497-500). Each of these three cell lines are publicly available from the National Institutes of Health (NIH) AIDS Research and Reference Reagent Program. The H9/HTLC-IIIB cell line is available under catalogue number 231, while CEM cell line is available under catalogue number 117 and the MT-2 cell line is available under the catalogue number 237. MT-2 and CEM cells were grown in RPMI 1640 medium supplemented with 10% (v/v) fetal calf serum, 100 U/ml penicillin, 100 μg/ml streptomycin and 25 mM HEPEs buffer. H9 cells were grown in the same medium except 20% fetal calf serum was used. The peptides were diluted in the medium used for MT-2 and CEM cells. Cell cultures were maintained in disposable tissue culture labware at 37° C. in a humidified atmosphere of 5% CO2 in air.
# (§2) The inhibitors were dissolved in DMSO at 40 mg/ml or sterile water at 2 mg/ml, then dilutions were made in medium. The dilutions were added to micro-titer plates in 100 μl/well aliquots so that the high drug concentration for each screen was 100 μg/ml after the addition of cells to the well.
# (§3) Susceptible MT-2 and CEM cells were grown and the cell population determined by a trypan blue viable cell count. The desired total number of cells were placed in a sterile, disposable 50 ml conical centrifuge tube and virus was added to give an MOI (Multiplicity of Infection) of 0.03 TCID50 /cell (Tissue Culture Infectious Dose) on MT-2 cells and approximately 0.12 TCID50 /cell on CEM cells. Fresh medium was added to adjust the cell density to 1×10^5 cells/ml, then the virus-cell suspension was incubated at 37° C. for 1 to 2 hours until plating. Uninfected controls cell were prepared in the same manner but without the addition of virus. Infected and uninfected cells were added to plates in 100 μl/well aliquots to give a starting cell number of 1×10^4 cells/well. The plates were incubated for seven days in a humidified atmosphere of 5% CO2 in air.
# Reagents for colorimetric evaluation of cell viability were prepared by mixing the tetrazolium reagent, XTT, and phenazine methosulfate (PMS) to final concentrations of 200 μg/ml and 0.02 mM, respectively. […] The plates were read with the sealers in place in a Vmax Plate Reader® at 450 nm and 650 nm. The cytopathic effect (CPE) and percentage of cell viability were then calculated. […]
# CEM cells = format: cell-based
# Method: as §1, §2, §3
# Reagents for colorimetric evaluation of cell viability were prepared by mixing the tetrazolium reagent, XTT, and phenazine methosulfate (PMS) to final concentrations of 200 μg/ml and 0.02 mM, respectively. Fifty microliters of the XTT-PMS solution was added to each well of the microtiter plates, then the plates were incubated in the CO2 incubator for another four hours. The lids were removed from the plates and replaced with adhesive plate sealers. The plates were read with the sealers in place in a Vmax Plate Reader® at 450 nm and 650 nm. The cytopathic effect (CPE) and percentage of cell viability were then calculated.
# The activity and cytotoxicity of several other peptides were also assayed in CEM cells using the same procedure as described above. These assays also included toxicity and activity levels of both 25% and 50%.
# Mo-MuLV = experiment: Moloney Murine Leukemia Virus Assay, CPE inhibition in SC-1/XC cells; format: cell-based; parameters: key: 4+(>90%); 3+(>60%); 2+(>40%); 1+(>20%); -(Negative)
# Method: (§4) About 3 to 5×10^3 SC-1 cells (available from the American Type Culture Collection, Rockville, Md. under the accession number ATCC CRL-1404) per well of a 96-well microtiter plate were seeded in minimal essential medium supplemented with 5% fetal bovine serum, penicillin (150 U/ml), Streptomycin (150 μg/ml) and polybrene (2 μg/ml), then infected with Mo-MuLV (Multiplicity of Infection=10 PFU/cell) the next day. The virus was allowed to adsorb to the cells for 1 hour, then medium containing serial dilutions of P-7, P-9 or medium alone was added to the cells. Pepstatin A ([…]-Val-Val-Statine-Ala-Statine) and AZT (3'-Azido-3'-deoxythymidine) were also added as controls. After incubation for 5 days (when cells were confluent) the SC-1 cells were UV irradiated for 10 seconds and 5 to 8×10^4 XC cells (ATCC CCL-165) per well were added. Generally, about two additional days of incubation were required to obtain full virus-induced cytopathic effect.
# MLV = MLV XC Plaque Reduction Assay - Virus Yield; format: cell-based, Murine Leukemia Virus
# Method: as §4
# The assay described above was also preferred to determine the virus yield. In this experiment, the supernatents were removed from the SC-1 cells four days after infection and tested for MLV titers, using the XC-plaque assay as previously described.
# [2] = test system: complex of Friend's Spleen-Forcus Virus (Fr. SFFV) and Friend's Murine Leukemia Virus (F. MLV); experiment: In vivo inhibition of Friend Virus Complex in DBA/2 mice; parameters: Spleen / Inhibition % (spleen): dose or concentration left out as unconfirmed; settings: individual infected DBA/2 mice
# Method: Formulations of peptides P-9 and P-7 were prepared for injection into DBA/2 mice. The formulations were prepared by dissolving the purified peptides in Emulphor™ EL620 which was purchased from the GAF Chemical Corporation, 1361 Alps Row, Wayne, N.J., 07470. The drugs were injected intraperitoneally one hour before the mice were infected with a complex of Friend's Spleen-Forcus Virus (Fr. SFFV) and Friend's Murine Leukemia Virus (F. MLV). These viruses ordinarily cause polycythermia (elevated levels of red blood cells) and splenomegaly (enlargement of spleen) within two to three week post-infection. The mice were injected twice daily with the inhibitor formulation for twenty days after the infection.
# *Drugs were dissolved in Emulphor ™, injected IP one hour before
# infection, then twice daily for 20 days.
# ^a Titers of Fr.MLV in the spleens (supernatents of 10% homogenates)
# were determined by XC plaque assay.
# [3] = test system: HTLV-IIIB strain of HIV-1; experiment: Inhibition of HIV-1 cytopathic effect in MT-2 cells (XTT); format: cell-based; settings: 7 days
# Method: as §1, with “H9 cells were grown in the same medium except 20% fetal calf serum was used. The peptides were diluted in the medium used for MT-2 and CEM cells. Cell cultures were maintained in disposable tissue culture labware at 37° C. in a humidified atmosphere of 5% CO2 in air.” left out
# Susceptible MT-2 and CEM cells were grown and the cell population determined by a trypan blue viable cell count. […]
# (§5) Reagents for colorimetric evaluation of cell viability were prepared by mixing the tetrazolium reagent, XTT, and phenazine methosulfate (PMS) to final concentrations of 200 μg/ml and 0.02 mM, respectively. […] The plates were read with the sealers in place in a Vmax Plate Reader® at 450 nm and 650 nm. The cytopathic effect (CPE) and percentage of cell viability were then calculated.
# MT-2 cells = format: cell-based
# Method: as §1, §2, §3, §5
structure (smiles),measurement,setting,value
"Cc1cn([C@H]2C[C@H](N=[N+]=[N-])[C@@H](CO)O2)c(=O)[nH]c1=O [AZT, 3'-Azido-3'-deoxythymidine]",IC50,"[1]; Human immunodeficiency virus 1, IIIB, CCRF-CEM, Table V, read-out: IC50 (concentration that reduced CPE by 50%)",< 0.0032 µg/mL
same,IC25 (concentration that reduced CPE by 25%),[1],< 0.0032 µg/mL
same,Maximum inhibition reached (CPE),[1]; inhibition decreased as drug concentration increased,60%
same,IC25 (Table V),CEM cells,> 1.0 µg/mL
same,TC50 (concentration that reduced cell viability by 50%),CEM cells,> 1.0 µg/mL
same,CPE inhibition score,Mo-MuLV; .0004 μg/ml,-
same,CPE inhibition score,Mo-MuLV; .0008 μg/ml,-
same,CPE inhibition score,Mo-MuLV; .003 μg/ml,2+ (2+(>40%))
same,CPE inhibition score,Mo-MuLV; .006 μg/ml,3+ (3+(>60%))
same,CPE inhibition score,Mo-MuLV; .012 μg/ml,4+ (4+(>90%))
same,CPE inhibition score,Mo-MuLV; .015 μg/ml,1+ (1+(>20%))
same,CPE inhibition score,Mo-MuLV; .025 μg/ml,4+ (4+(>90%))
same,CPE inhibition score,Mo-MuLV; .05 μg/ml,4+ (4+(>90%))
same,CPE inhibition score,Mo-MuLV; .1 μg/ml,4+ (4+(>90%))
same,CPE inhibition score,Mo-MuLV; .2 μg/ml,4+ (4+(>90%))
same,Yield,MLV; 3.125 ng/ml,2.9 × 10^4 PFU/ML
same,Yield,MLV; 6.25 ng/ml,80 PFU/ML
same,Yield,MLV; 12.5 ng/ml,< 10 PFU/ML
same,% Inhibition (virus yield),MLV; 25 ag/ml,> 99%
same,Yield,MLV; 25 ag/ml,< 10 PFU/ML
same,inhibition at 0.003125 µg/mL,"MLV; Murine leukemia virus, 3.125 ng/ml",98%
same,inhibition at 0.00625 µg/mL,"MLV; Murine leukemia virus, 6.25 ng/ml",> 99%
same,inhibition at 0.0125 µg/mL,"MLV; Murine leukemia virus, 12.5 ng/ml",> 99%
same,Inhibiton % (virus titer),[2]; 100 pg IP twice daily for 20 days,> 99% and 95%
same,"Virus Titer (Fr.MLV in the spleens, XC plaque assay)","[2]; 100 pg IP twice daily for 20 days, supernatents of 10% homogenates","500 PFU/ml and 20,000 PFU/ml"
same,Spleen,"[2]; IP one hour before infection, then twice daily for 20 days",0.17 gm and 0.21 gm
same,Inhibition % (spleen),[2]; IP twice daily for 20 days,85% and 81%
"Nc1ccn([C@H]2CC[C@@H](CO)O2)c(=O)n1 [DDC, 2', 3Dideoxycytidine]",IC25 (concentration that reduced CPE by 25%),[1],0.0032 µg/mL
same,ID50 (minimum drug concentration that inhibited CPE by 50%),[3],0.11 µg/mL and 0.10 µg/mL
same,IC25 (Table V),CEM cells,0.04 µg/mL
same,TC50 (concentration that reduced cell viability by 50%),CEM cells,0.8 µg/mL
same,MTC50 (minimum cytotoxic drug concentration that reduces cell viability to 50%),MT-2 cells,> 10 µg/mL
